Results reported in patent US12448433B2, “Human ApoB100 epitopes, methods and uses for modulating inflammatory responses, and treating adverse cardiovascular events, disease and atherosclerosis” (LA JOLLA INSTITUTE FOR ALLERGY AND IMMUNOLOGY, priority 2015, dated 2025).

Assays:
DPB1*02:01 = assay: Peptide binding to HLA-DP allele, competition assay; parameters: species or system human
From the text: (§1) Peptide binding to MHC-II requires anchor residues in certain positions and thus can be predicted using computer algorithms. Affinity can be measured experimentally using a competition assay (1). Both are excellent screening tools. However, affinity must be measured separately for each MHC-II allele. Humans express molecules encoded in four different MHC-II loci, denominated HLA-DRB1, DRB3/4/5, DP and DQ. Allelic variation is large, and most people are heterozygous at each locus, thus expressing up to 8 relevant MHC-II alleles. CD4 T cell responses strictly require that the antigenic peptide binds to the relevant MHC-II.
(§2) To identify peptides that could potentially be used in human patients, 30 peptides were screened for binding to 26 HLA alleles by competition assay.

DPB1*05:01 = assay: as above; parameters: species or system human
From the text: as §1, §2

DPB1*14:01 = assay: as above; parameters: species or system human
From the text: as §1, §2

DPB1*04:02 = assay: as above; parameters: species or system human
From the text: as §1, §2

DRB1*09:01 = DRB1*09:01 (Homo sapiens, UniProt P01903+P01911, A100R/A103E/D57H/D86V/F55Y/F60I/F76Y/I96F/K127E/L162R/M171V/P40D/Q125H/Q99R/R33Q/R42F/S133A/S66N/T210M/V115G/W38K/Y107V/Y59G/Y89S); assay: Peptide binding to HLA-DR allele, competition assay
From the text: as §1, §2

DRB1*04:05 = DRB1*04:05 (Homo sapiens, UniProt P01903+P01911, A100R/A169T/D86S/F76Y/I96L/K127E/L162R/M171V/N62H/P40V/Q125Y/R42H/S133A/S149N/S66Y/V115G/V209L/W38E); assay: as above
From the text: as §1, §2

DPB1*04:01 = target: T1, DPB1*04:01 (Homo sapiens, UniProt P04440); assay: Peptide binding to HLA-DP allele, competition assay
T1 sequence (P04440 30-258): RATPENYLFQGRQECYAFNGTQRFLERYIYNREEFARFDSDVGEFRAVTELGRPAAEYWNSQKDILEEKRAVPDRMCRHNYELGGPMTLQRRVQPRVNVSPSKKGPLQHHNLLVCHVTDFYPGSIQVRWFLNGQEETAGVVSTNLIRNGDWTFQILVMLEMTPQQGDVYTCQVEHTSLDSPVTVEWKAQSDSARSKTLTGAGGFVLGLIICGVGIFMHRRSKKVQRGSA
T1 sequence (P20036 29-260 partner): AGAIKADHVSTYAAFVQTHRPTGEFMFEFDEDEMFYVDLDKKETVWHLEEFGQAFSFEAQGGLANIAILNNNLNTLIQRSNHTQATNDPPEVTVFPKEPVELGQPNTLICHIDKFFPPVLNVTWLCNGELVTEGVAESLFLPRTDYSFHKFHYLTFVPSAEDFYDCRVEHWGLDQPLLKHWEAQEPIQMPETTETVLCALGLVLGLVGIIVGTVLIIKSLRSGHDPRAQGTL
From the text: as §1, §2

DQB1*06:02 = assay: Peptide binding to HLA-DQ allele, competition assay; parameters: species or system human
From the text: as §1, §2

DQB1*05:01 = assay: as above; parameters: species or system human
From the text: as §1, §2

DRB1*13:02 = DRB1*13:02 (Homo sapiens, UniProt P01903+P01911, A100E/A169T/K41T/L162R/M171V/P40S/Q125H/Q178H/Q39Y/Q99D/R42S/S66N/T262R/V115G/W38E/Y61H); assay: Peptide binding to HLA-DR allele, competition assay
From the text: as §1, §2

DRB1*11:01 = DRB1*11:01 (Homo sapiens, UniProt P01903+P01911, A100R/A169T/A87E/I96F/K41T/L162R/M171V/P40S/Q125H/Q178H/Q39Y/Q99D/R42S/S66Y/T262R/V115G/W38E); assay: as above
From the text: as §1, §2

HLA-DRB1*01:01 = HLA-DRB1*01:01 (Homo sapiens, UniProt P01903+P01911, A100R/D57E/F55L/F60I/F76Y/I96L/L162R/M171V/P40L/Q125E/R42F/V115G/Y59C); assay: as above
From the text: as §1, §2

DPB1*03:01 = assay: Peptide binding to HLA-DP allele, competition assay; parameters: species or system human
From the text: as §1, §2

DRB1*15:01 = DRB1*15:01 (Homo sapiens, UniProt P01903+P01911); assay: Peptide binding to HLA-DR allele, competition assay
From the text: as §1, §2

DRB5*01:01 = DRB5*01:01 (Homo sapiens, UniProt P01903+Q30154); assay: as above
From the text: as §1, §2

| SMILES | IC50 (DPB1*02:01) [µM] | IC50 (DPB1*05:01) [µM] | IC50 (DPB1*14:01) [µM] | IC50 (DPB1*04:02) [µM] | IC50 (DRB1*09:01) [µM] | IC50 (DRB1*04:05) [µM] | IC50 (DPB1*04:01) [µM] | IC50 (DQB1*06:02) [µM] | IC50 (DQB1*05:01) [µM] | IC50 (DRB1*13:02) [µM] | IC50 (DRB1*11:01) [µM] | IC50 (HLA-DRB1*01:01) [µM] | IC50 (DPB1*03:01) [µM] | IC50 (DRB1*15:01) [µM] | IC50 (DRB5*01:01) [µM] |
| --- | --- | --- | --- | --- | --- | --- | --- | --- | --- | --- | --- | --- | --- | --- | --- |
| CC[C@H](C)[C@H](NC(=O)[C@H](C)NC(=O)[C@H](CCCCN)NC(=O)[C@H](Cc1ccccc1)NC(=O)[C@@H](NC(=O)[C@H](CCC(=O)O)NC(=O)[C@@H](N)CCC(N)=O)C(C)C)C(=O)N[C@@H](CCC(N)=O)C(=O)N[C@@H](CO)C(=O)N[C@@H](CC(C)C)C(=O)N[C@@H](CCCCN)C(=O)N[C@H](C(=O)N[C@H](C(=O)N[C@@H](CCC(=O)O)C(=O)N[C@H](C(=O)O)C(C)C)[C@@H](C)O)[C@@H](C)O [Peptide 3563.0024] | 0.2 | 0.369 | 1.78 | 0.093 | 0.046 | 0.018 | 0.016 |  |  |  |  |  |  |  |  |
| CC(C)C[C@H](NC(=O)CNC(=O)[C@@H](N)CCCNC(=N)N)C(=O)N[C@@H](CCCCN)C(=O)N[C@@H](CC(C)C)C(=O)N[C@@H](C)C(=O)N[C@H](C(=O)N[C@@H](C)C(=O)N[C@@H](CC(C)C)C(=O)N[C@@H](CO)C(=O)N[C@@H](CC(C)C)C(=O)N[C@@H](CO)C(=O)N[C@@H](CC(N)=O)C(=O)N[C@@H](CCCCN)C(=O)N[C@@H](Cc1ccccc1)C(=O)O)[C@@H](C)O [Peptide 3563.0020] |  | 0.0098 | 0.183 |  | 0.017 |  |  | 0.245 | 2.63 | 0.0011 | 1.2 | 0.0071 |  |  |  |
| CC[C@H](C)[C@H](N)C(=O)N[C@@H](CCCCN)C(=O)N[C@@H](Cc1c[nH]cn1)C(=O)N[C@H](C(=O)N[C@@H](Cc1ccc(O)cc1)C(=O)N[C@@H](C)C(=O)N[C@H](C(=O)N[C@@H](CO)C(=O)N[C@@H](CO)C(=O)N[C@@H](C)C(=O)N[C@@H](C)C(=O)N[C@@H](CC(C)C)C(=O)N[C@@H](CO)C(=O)N[C@@H](C)C(=O)N[C@@H](CO)C(=O)O)[C@@H](C)CC)[C@@H](C)CC [Peptide 3563.0009] |  |  | 0.132 |  |  |  |  | 0.066 |  |  |  |  | 0.09 | 0.0011 | 0.018 |
